Measurements reported in patent publication US10266545B2, “Coumarin derivative as antiviral agent, pharmaceutical composition thereof, its preparation and use” (I-NOVA MEDICINSKA ISTRAZIVANJA D.O.O., priority 2016, dated 2019).

Experiments:
[1] = target: T1, rRT (exogenous recombinant RT) (Human immunodeficiency virus type 1 group M subtype B, UniProt P03366); experiment: Direct effect on exogenous recombinant RT (rRT), HS-Lenti RT activity kit; type: biochemical, HIV-1; conditions: for inhibition at 10 µM: 0.01 mM
T1 construct: recombinant RT was added with a known activity and concentration; purchased Cavidi (Sweden) 52010
Description: The RT test was performed by using HS-Lenti RT activity kit test provided by Cavidi (Sweden) for direct study of inhibitory effect of rRT. HS-Lenti RT activity assay provides an opportunity for direct determination of the effects of the test compound 1 and the control compound 2 on the activity of rRT, of known concentrations. […] Such opportunity is provided by the test kit manufacturer, see literature reference 10: • 10) X. Shao, D. Ekstrand, R. Bhikhabhai, C. Kallander, J. Gronowitz: A non-radioactive microtitre plate reverse transcriptase (RT) assay, based on immobilized template, for screening of RT activity inhibitors and evaluation of the mode of action, Antiviral Chem. Chemother. 8 (1997) 149-159.
For the control, commonly used substance with proven antiviral activity was employed; in our case, we used Kivexa, which contains 600 mg Abacavir and 300 mg of Lamivudine, which is applied in clinical practice as nucleoside inhibitor of RT. In the presence of RT inhibition in the test, it is concluded that not only the replication of the virus is inhibited, but also probably the target of the inhibitory effect is RT itself. To confirm this conclusion, it is necessary that percentage (%) of inhibition of the RT coincides with the % inhibition in the microtiter MTT assay. […] After incubation, we determined whether the activity of the enzyme shall be amended (inhibited) by action of the compounds 1 or 2. […]
The procedure was as follows: In wells of a company plate coated with a matrix poly-rA, are added reaction mixture to RT, the primer containing oligo-dT, Brd UTP as a source of dNTP and prepared at buffer of the commercial test 10× more concentrated (as reaction mixture was in a volume of 100 μl) of the test substance dilutions. […] Manifestation of the enzyme reaction was carried out using a suitable substrate for alkaline phosphatase for 30 minutes and then the absorbance was detected at a wavelength of 405 nm. […]

MT-4 cells = experiment: Cytotoxicity (MNC, CC50) by MTT assay on uninfected MT-4 cell line; type: cell-based; conditions: for MNC (maximal non-toxic concentration): MT-4 cells, MTT
Description: (§1) Cell viability was estimated by a modification of the 3-(4,5-dimethylthiazol-2-yl)-2,5-diphenyltetrazolium bromide (MTT) assay, which is described in the literature reference 9: • 9) T. Mosmann: Rapid colorimetric assay for cellular growth and survival: Application to proliferation and cytotoxicity assays, J. Immunol.
(§2) Both MNC and CC50 values were evaluated simultaneously by morphological and by cell survival criteria. We used MTT-test, determining the living and early apoptotic cells.
(§3) The cells in the suspension culture are growing in clusters. […] Cells were passaged 1:3-1:5 at a density around 6-8·10^4 cells/ml, while the passage was re-suspended repeatedly.
(§4) Cell viability was estimated by a modification of the 3-(4,5-dimethylthiazol-2-yl)-2,5-diphenyltetrazolium bromide (MTT) assay, which is described in the reference 9.
(§5) Since the cell culture we have worked with were suspension, a solution of poly-L-lysine (PLL; Mw=90,000; Sigma-Aldrich, USA) was used for cell attachment on the bottom of a 96-well plate. The plates were treated with 100 μl of PLL at a concentration of 50 μg/ml in phosphate buffered saline (PBS; Sigma-Aldrich, USA), pH=7.4, then incubated for 1 h at room temperature. Followed aspiration of PLL solution and washing the plate twice with sterile PBS. Cells were then seeded at a concentration of 7-8·10^4 cells/100 μl for all experiments. Since the final volume of the culture medium in each well was 200 μl, additional 100 μl of 10% FBS (containing no cells) was added. For the purpose of the experiment, there was no need of forming a dense cell monolayer and after 24 h, when the adherent cells were stick to the plastic, the supernatant was decanted and adding 50 μl of previously prepared dilution of test compound. The well was completed with culture medium (150 μl) to a final volume of 200 μl. The plate was incubated at 37° C. and 5% content of CO2 for 3 days (72 h). Cells grown in medium without the test compound served as a control.
(§6) After 72 h incubation, the medium was replaced with MTT (Sigma Aldrich, USA) and dissolved at a final concentration of 5 mg/ml in serum-free medium, for further 3 h incubation. Then, the MTT-formazan product was solubilised in ethanol/dimethyl sulfoxide (DMSO; Sigma-Aldrich, USA) (1:1, V/V), and the optical density was measured at a test wavelength of 540 nm. Each experiment was performed in triplicate.
(§7) Cell viability was reported as the percentage (%) of viable cells in the wells treated with different concentrations of the test substance compared to the control cells untreated with the substances.

[2] = as above; type: cell-based; conditions: human; MT-4 cells, 72 h, MTT; read-out: CC50 (cytotoxic concentration for 50% cells)
Description: as §1, §2, §3, §4, §5, §6, §7

[3] = 72 h, highest concentration of 100 mM, could be due to DMSO
[4] = 72 h after treatment, concentration range from 10 mM to 0.01 mM

## O=c1oc2cc(O)cc(O)c2c(O)c1-c1coc2c1c(=O)oc1cc(O)cc(O)c12 [Compound 1, 7,9-dihydroxy-3-(4,5,7-trihydroxy-2-oxo-2H-chromene-3-yl)-4H-furo[3,2-c]chromen-4-one]
[1]; 0.005 mM
  inhibition at 5 µM: 0%
[1]
  inhibition at 10 µM: 72.8%
MT-4 cells; [3]
  microscopic observation of the morphology of the monolayer: some morphology changes
MT-4 cells; [4]
  microscopic observation of the morphology of the monolayer: typical cytopathology characterizing toxic effects were not registered
MT-4 cells; 72 h
  MNC (maximal non-toxic concentration): 0.01 mM
[2]
  CC50 at 72 h: 10 mM

## O=c1oc2cc(O)c(O)cc2c(O)c1-c1coc2c1c(=O)oc1cc(O)c(O)cc12 [Compound 2, 7,8-dihydroxy-3-(4,6,7-trihydroxy-2-oxo-2H-chromen-3-yl)-4H-furo[3,2-c]chromen-4-one, reference compound]
[1]
  inhibition at 10 µM: 0%
MT-4 cells; [3]
  microscopic observation of the morphology of the monolayer: some morphology changes
MT-4 cells; [4]
  microscopic observation of the morphology of the monolayer: typical cytopathology characterizing toxic effects were not registered
MT-4 cells; 72 h
  MNC (maximal non-toxic concentration): 0.01 mM
[2]
  CC50 at 72 h: 10 mM
